Data reported in publication PMC7252906 (Toxicology and applied pharmacology, 2019).
Several values for one entry are separate records, joined by “and”; a condition that tells them apart may be missing. Equal entries are not always repeated. Where two headings read alike, the source gives them in different places.

What was measured:
[1] = Disposition of DMAE after gavage, rats and mice summarised together; assay type: in vivo, Wistar Han rats and B6C3F1 mice; conditions: range over groups
[2] = male Wistar rats, IV 11 mg/kg, 6 minutes post-dosing; ref Dormard et al. (1975); cited from earlier work
[3] = Radiochemical HPLC profiling of urine after [^14C]DMAE; conditions: Oral
[4] = Disposition of [^14C]DMAE after single gavage administration, strain comparison; assay type: in vivo; conditions: male Sprague Dawley rats, gavage 500 mg/kg, 24 h
[5] = not given; remark: listed apart in the source
[6] = female B6C3F1 mice, gavage 10 mg/kg, 24 h
[7] = female B6C3F1 mice, gavage 10 mg/kg, 24 h, listed as [^14C]DMAE, 10 mg/kg
[8] = female B6C3F1 mice, gavage 100 mg/kg, 24 h
[9] = female B6C3F1 mice, gavage 100 mg/kg, 24 h, listed as [^14C]DMAE, 100 mg/kg
[10] = female B6C3F1 mice, gavage 500 mg/kg, 24 h
[11] = female B6C3F1 mice, gavage 500 mg/kg, 24 h, listed as [^14C]DMAE, 500 mg/kg
[12] = female B6C3F1 mice, gavage 500 mg/kg, 72 h
[13] = male B6C3F1 mice, gavage 500 mg/kg, 24 h
[14] = female Wistar Han rats, gavage 500 mg/kg, 24 h
[15] = male Wistar Han rats, IV 10 mg/kg, 24 h
[16] = male Wistar Han rats, IV 10 mg/kg, 24 h, listed as [^14C]DMAE, 10 mg/kg
[17] = male Wistar Han rats, gavage 10 mg/kg, 24 h

With `CN(C)CCO` [DMAE, Dimethylaminoethanol] the “administered dose recovered in tissues (excluding GI tract)” value (B6C3F1 mice, oral, 24 h post-exposure, range over groups) was 26–44%, the “% Dose Recovered, Feces” value [6] was 1.94 ±0.490 % dose and the “% Dose Recovered, Tissues and GI Tract (includes contents)” value (“% Dose Recovered, Tissues and GI Tract” below) [6] was 57.6 ± 3.00 % dose. The “% Dose Recovered, Total Recovered” value [6] was 99.3 ± 1.60 % dose, the “% Dose Recovered, VOCs” value [6] was 1.66 ± 0.340 % dose and the “percent radioactivity remaining in all tissues, excluding GI tract” value (“percent radioactivity remaining” below) [6] was ~44%. For the same molecule, the “% Dose Recovered, CO2” value [7] was 22 % dose and 22.3 ± 3.68 % dose, the “% Dose Recovered, Urine” value [7] was 16 % dose and 15.8 ± 4.00 % dose and the “% Dose Recovered, Feces” value [8] was 1.10 ± 0.410 % dose. For the same molecule, the “% Dose Recovered, Tissues and GI Tract” value [8] was 44.5 ± 1.70 % dose, the “% Dose Recovered, Total Recovered” value [8] was 81.6 ± 4.40 % dose and the “% Dose Recovered, VOCs” value [8] was 1.27 ± 0.160 % dose. For the same molecule, the “percent radioactivity remaining” value [8] was ~30%, the “% Dose Recovered, CO2” value [9] was 16 % dose and 15.5 ± 0.600 % dose and the “% Dose Recovered, Urine” value [9] was 18 % dose and 17.9 ± 3.90 % dose. The “% Dose Recovered, Feces” value [10] was 0.713 ± 0.273 % dose, the “% Dose Recovered, Tissues and GI Tract” value [10] was 38.4 ± 16.1 % dose and the “% Dose Recovered, Total Recovered” value [10] was 97.1 ± 15.2 % dose. The “% Dose Recovered, VOCs” value [10] was 1.51 ± 0.210 % dose, the “percent radioactivity remaining” value [10] was ~32% and the “% Dose Recovered, CO2” value [11] was 13 % dose and 13.2 ± 1.80 % dose. For the same molecule, the “% Dose Recovered, Urine” value [11] was 43 % dose and 43.4 ± 11.5 % dose, the “% Dose Recovered, CO2” value [12] was 21.0 ± 2.20 % dose and the “% Dose Recovered, Feces” value [12] was 2.24 ± 1.31 % dose. For the same molecule, the “% Dose Recovered, Tissues and GI Tract” value [12] was 19.0 ± 3.70 % dose, the “% Dose Recovered, Total Recovered” value [12] was 97.2 ± 6.40 % dose and the “% Dose Recovered, Urine” value [12] was 53.8 ± 3.90 % dose. The “% Dose Recovered, VOCs” value [12] was 1.08 ± 0.190 % dose, the “total administered dose recovered in tissues” value [12] was 16% and the “radioactivity in feces and VOCs” value (female B6C3F1 mice, gavage, across all dose groups) was < 2%. The “% Dose Recovered, CO2” value [13] was 17.8 ± 1.10 % dose, the “% Dose Recovered, Feces” value [13] was 13.7 ± 14.9 % dose and the “% Dose Recovered, Tissues and GI Tract” value [13] was 31.8 ± 1.50 % dose. For the same molecule, the “% Dose Recovered, Total Recovered” value [13] was 92.1 ± 13.6 % dose, the “% Dose Recovered, Urine” value [13] was 27.1 ± 20.0 % dose and the “% Dose Recovered, VOCs” value [13] was 1.75 ± 0.319 % dose. The excretion in urine (mice, gavage, range over groups) was 16–43%, the “excreted as exhaled CO2” value (mice, range over groups) was 13–22% and the “total percentage of administered dose recovered” value (mouse studies, range over groups) was 82–99%. The “excreted as exhaled CO2” value [1] was 3–22%, the excreted in urine [1] was 16–69% and the tissue retention [1] was 21–44%. For the same molecule, the “% of IV dose present in the plasma” value [2] was 0.16%, the “Estimated percentage of area of DMAE peak in urine chromatogram” value (“Estimated percentage” for short) ([3]; Mouse/Female, [^14C]DMAE 10 mg/kg) was 8% and the “Estimated percentage” value ([3]; Mouse/Female, [^14C]DMAE 100 mg/kg) was 82%. For the same molecule, the “Estimated percentage” value ([3]; Mouse/Female, [^14C]DMAE 500 mg/kg) was 66%, the “Estimated percentage” value ([3]; Mouse/Male, [^14C]DMAE 500 mg/kg) was 100% and the “% Dose Recovered, CO2” value [4] was 2.94 ± 0.230 % dose. For the same molecule, the “% Dose Recovered, Feces” value [4] was 0.538 ± 0.335 % dose, the “% Dose Recovered, Tissues and GI Tract” value [4] was 34.1 ± 1.80 % dose and the “% Dose Recovered, Total Recovered” value [4] was 98.3 ± 3.50 % dose. For the same molecule, the “% Dose Recovered, Urine” value [4] was 60.4 ± 3.80 % dose, the “% Dose Recovered, VOCs” value [4] was 0.220 ± 0.047 % dose and the “administered dose recovered in tissues (excluding GI tract)” value ([5]; Wistar Han rats, oral, 24 h post-exposure, range over groups) was 21–29%. The “% Dose Recovered, Feces” value [5, 14] was 0.549 ± 0.147 % dose, the “% Dose Recovered, Tissues and GI Tract” value [5, 14] was 27.4 ± 1.40 % dose and the “% Dose Recovered, Total Recovered” value [5, 14] was 98.4 ± 0.800 % dose. For the same molecule, the “% Dose Recovered, VOCs” value [5, 14] was 0.818 ± 0.456 % dose, the “% Dose Recovered, CO2” value ([5]; female Wistar Han rats, gavage 500 mg/kg, 24 h, listed as [^14C]DMAE, 500 mg/kg) was 6.09 ± 0.810 % dose and the “% Dose Recovered, CO2” value [5, 15] was 3.52 ± 0.780 % dose. The “% Dose Recovered, Feces” value [5, 15] was 0.330 ± 0.092 % dose, the “% Dose Recovered, Tissues and GI Tract” value [5, 15] was 38.5 ± 2.30 % dose and the “% Dose Recovered, VOCs” value [5, 15] was 0.230 ± 0.029 % dose. The “% Dose Recovered, Urine” value ([5]; male Wistar Han rats, IV 10 mg/kg, 24 h, 10 mg/kg) was 39 % dose, the “% Dose Recovered, Total Recovered” value [5, 16] was 82 % dose and 81.8 ± 7.10 % dose and the “% Dose Recovered, Urine” value [5, 16] was 39.2 ± 7.80 % dose. The “% Dose Recovered, CO2” value [5, 17] was 3.67 ± 0.440 % dose, the “% Dose Recovered, Feces” value [5, 17] was 0.206 ± 0.242 % dose and the “% Dose Recovered, Tissues and GI Tract” value [5, 17] was 33.9 ± 2.20 % dose. The “% Dose Recovered, VOCs” value [5, 17] was 0.153 ± 0.037 % dose, the “percent radioactivity remaining” value [5, 17] was ~28% and the “% Dose Recovered, Total Recovered” value ([5]; male Wistar Han rats, gavage 10 mg/kg, 24 h, listed as [^14C]DMAE, 10 mg/kg) was 95 % dose and 94.9 ± 3.20 % dose.
